Laboratory results taken from patent publication US20230265069A1, “Small Molecule Inhibitors That Block the Budding of Enveloped Viruses” (priority 2020, published 2023).
Where two headings read alike, the source gives them in different places.

How the values were obtained:
HSV-2 = HSV-2 release from infected Vero cells, plaque assay; conditions: for EC50: read-out: EC50 (μM) Inhibition of HSV-2 Budding at 24 h
[1] = molecular target: T1, Tsg101-UEV (Tsg101 amino acids 1-145) (Homo sapiens, UniProt Q99816); experiment: Fluorescence thermal shift (FTS) assay, binding to Tsg101-UEV; conditions: FTS dose response, result in words
T1 sequence (Q99816 1-145): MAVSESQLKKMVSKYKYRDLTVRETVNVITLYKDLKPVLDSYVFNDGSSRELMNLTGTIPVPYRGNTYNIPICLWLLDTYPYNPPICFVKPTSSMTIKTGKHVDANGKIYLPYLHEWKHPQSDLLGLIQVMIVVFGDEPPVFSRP
Description: The fluorescence-based thermal shift assay is based on the observation that a protein unfolds upon heating, exposing the hydrophobic residues within its tertiary structure. The unfolding temperature (Tm) is determined by the protein's primary sequence and solution environment. The FTS assay uses a fluorescent dye sensitive to a hydrophobic environment to probe protein stability and its modulation by small molecule ligands. The dye has a low fluorescence quantum yield when in a polar environment. Once in contact with the hydrophobic core normally buried within a folded protein that has become exposed during the thermal unfolding (melting) process, the quantum yield of the dye increases, thus providing a reporting signal. Furthermore, a protein's stability can be affected by ligand binding, resulting in an increase or decrease in its melting temperature. FTS assay uses the Tm shift upon binding of a ligand to identify hit compounds for drug discovery.
We screened chemical compounds using a fluorescence thermal shift (FTS) assay (27, 28) to identify small molecules that bind directly to a truncated form of Tsg101 (amino acids 1-145) which contains the Ubiquitin E2 variant (UEV) ubiquitin-binding domain (FIG. 1A, 1B, 1C). […] This truncated Tsg101, called Tsg101-UEV, was used because full-length Tsg101 has significant solubility issues in aqueous solution. Tsg101 is an adaptor protein and thus lacks a readily deployable functional assay, making FTS a tractable approach to identify interacting compounds. FTS monitors protein thermal denaturation using SYPRO® Orange, a dye which fluoresces when bound to hydrophobic surfaces, which allows monitoring of the changes in hydrophobic surface exposure during protein denaturation (27). Since ligand binding affects protein thermal stability, it can be detected through modulation of protein thermal denaturation (melting) as a shift in melting temperature (Tm). Tsg101-UEV has a well-defined melting curve suitable for FTS. We used the FTS assay to identify compounds that bind to Tsg101-UEV.
Fluorescence thermal shift (FTS) screening to identify small molecule binding to Tsg101-UEV. FTS using thermal shift elicited by the small molecule binding effect to protein stability. FTS monitors protein thermal denaturation using environment-sensitive dye Sypro® Orange which fluoresces when bound to hydrophobic surfaces, taking advantage of the changes in hydrophobic surface exposure in protein denaturation. Discovery of small molecule binding to target protein utilizes the observation that ligand binding affects protein thermal stability, and therefore can be detected through a shift in the protein's thermal denaturation (melting) temperature (Tm). We have employed FTS to reveal changes in thermodynamic properties of Tsg101 elicited by its interaction with a small molecule. […] A fluorescence dye Sypro® Orange (Invitrogen) was used for assay detection. The dye is excited at 473 nm and has a fluorescence emission at 610 nm. The dye binds to hydrophobic regions of a protein that are normally buried in a native protein structure. […] The Tsg101 fragment was premixed at a concentration of 2 μM with a 5× concentration of Sypro® Orange in HEPES buffer (100 mM HEPES, 150 mM NaCl, pH 7.5). Then 10 μl of the protein-dye mix was added to an assay plate and 10 to 50 nanoliters of compound, equal to 10 to 50 μM, were added with an acoustic transfer robot Echo550 (Labcyte, CA).

[2] = HSV-2 infected Vero cells, virus released into media, plaque assay
[3] = Human alphaherpesvirus 2, Vero, 24 h

## 4-desmethoxy-omeprazole
HSV-2; [2]
  EC50: 52 µM

## 5-methoxy-2[[(3,5-dimethyl-4-methoxy-pridin-2-yl-N-oxide)methyl]sulfinyl]-1H-benzimidazole [O-omeprazole]
[1]
  Thermal shift (Tm shift) of Tsg101-UEV caused by compound: did not cause a detectable thermal shift
HSV-2; [2]
  EC50 (μM) Inhibition of HSV-2 Budding at 24 h: inactive

## Cc1c(OCC(F)(F)F)ccnc1C[S+]([O-])c1nc2ccccc2[nH]1 (stereo not drawn) [Lansoprazole]
HSV-2; [3]
  EC50: 84 µM

## COc1ccc2[nH]c([S+]([O-])Cc3ncc(C)c(OC)c3C)nc2c1 (stereo not drawn) [Omeprazole]
HSV-2; [3]
  EC50: 78 µM

## Dexlansoprazole
HSV-2; [2]
  EC50: 76 µM
